Results taken from the METLIN SMRT retention time set (Domingo-Almenara et al. 2019).

Test: gradient 5% acetonitrile 3 min, to 50% in 2 min, to 85% in 15 min, held 3 min, 100 µL/min
Conditions: column: Zorbax Extend-C18 2.1 x 50 mm; eluents: water / acetonitrile, 0.1% formic acid
Procedure, shortened: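 A Zorbax Extend-C18 column (2.1 × 50 mm, 1.8 μm) run at 100 μL/min with water and acetonitrile, both containing 0.1% formic acid, separated mixtures of ~100 pure standards. The HPLC was coupled to a quadrupole time-of-flight mass spectrometer operated in positive and negative ionization mode, with dead and dwell volumes of 40 μL and 900 μL. Each retention time was taken from a computationally picked adduct peak that was then manually inspected.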

**Q.** Which RP-LC retention time does the source give for `O=S(=O)(NC1CCCCC1)c1ccc(-c2nnc(C3CC3)o2)o1` here?
**A.** Its RP-LC retention time is 940 s.

**Q.** For `O=C(NCc1cc(-c2ccco2)on1)c1ncc(-c2ccccc2)o1`, which RP-LC retention time is on record?
**A.** Its RP-LC retention time is 863 s.

**Q.** For `O=C(N[C@H]1CN2CCC1CC2)c1ccc(Cl)cc1`, which RP-LC retention time is on record?
**A.** Its RP-LC retention time is 630 s.

**Q.** For `O=C(C1=CN(c2cccc(Br)c2)c2ccccc2S1(=O)=O)N1CCCC1`, which RP-LC retention time is on record?
**A.** Its RP-LC retention time is 819 s.

**Q.** For `CCOc1ncccc1C(=O)NCc1cc(-c2cccs2)on1`, which RP-LC retention time is on record?
**A.** The RP-LC retention time was 831 s.

**Q.** With `CCc1ccc(OCC(=O)Nc2cc3c(cc2N2CCCC2)n(C)c(=O)c(=O)n3C)cc1` as the compound, how does the RP-LC retention time read?
**A.** The RP-LC retention time was 836 s.

**Q.** With `O=C1COc2cc(S(=O)(=O)N3CCC(C(=O)N4CCOCC4)CC3)c(Cl)cc2N1` as the compound, how does the RP-LC retention time read?
**A.** The RP-LC retention time was 659 s.

**Q.** With `Cc1onc(-c2ccc(F)cc2F)c1C(=O)NC(C)C` as the compound, how does the RP-LC retention time read?
**A.** Its RP-LC retention time is 789 s.

**Q.** For `Cc1c(C(=O)NC2CC2)cnn1-c1cc(-c2nc(C3CC3)no2)ccn1`, which RP-LC retention time is on record?
**A.** Its RP-LC retention time is 843 s.

**Q.** Which RP-LC retention time does the source give for `O=C(NCc1ccccc1Cl)C1COCC(=O)N1Cc1ccccc1` (stereo unspecified) here?
**A.** Its RP-LC retention time is 724 s.

**Q.** With `O=C(Nc1nccs1)C1CC(=O)N(CCc2c[nH]c3ccc(Cl)cc23)C1` (stereo unspecified) as the compound, how does the RP-LC retention time read?
**A.** Its RP-LC retention time is 745 s.

**Q.** Which RP-LC retention time does the source give for `O=C(CCC(=O)N1CC2CCCN2c2ccccc21)NCc1ccco1` (stereo unspecified) here?
**A.** Its RP-LC retention time is 1090 s.

**Q.** With `Cc1ccc(-c2nc3ccccn3c2NC(=O)NCc2ccccc2)cc1` as the compound, how does the RP-LC retention time read?
**A.** The RP-LC retention time was 657 s.

**Q.** With `O=C1c2ccccc2C(=O)N1c1nc(-c2ccccc2)cs1` as the compound, how does the RP-LC retention time read?
**A.** The RP-LC retention time was 864 s.

**Q.** For `O=C(NCCc1csc(C2CCN(C(=O)C3CCC3)CC2)n1)C1CCC1`, which RP-LC retention time is on record?
**A.** Its RP-LC retention time is 703 s.

**Q.** Which RP-LC retention time does the source give for `COc1ccc(CC(=O)Nc2ccc3c(c2)Sc2ncccc2C(=O)N3C)cc1Cl` here?
**A.** The RP-LC retention time was 807 s.

**Q.** For `Cc1cccc2nnc(N3CCN(C(=O)c4cccs4)CC3)n12`, which RP-LC retention time is on record?
**A.** The RP-LC retention time was 618 s.

**Q.** With `CCN1CCCn2cc(S(=O)(=O)N3CCN(c4ccc(Cl)cc4)CC3)cc2C1=O` as the compound, how does the RP-LC retention time read?
**A.** The RP-LC retention time was 894 s.

**Q.** Which RP-LC retention time does the source give for `CCCCN(CCCNC(=O)C1CCN(S(=O)(=O)N2CCOCC2)CC1)Cc1ccccc1` here?
**A.** The RP-LC retention time was 640 s.

**Q.** For `CCS(=O)(=O)N1CC(=O)N(c2ccc(Cl)cc2C)C(C)(C(=O)NCc2ccc(F)cc2)C1` (stereo unspecified), which RP-LC retention time is on record?
**A.** Its RP-LC retention time is 882 s.

**Q.** Which RP-LC retention time does the source give for `Cc1cccc(NC(=O)Cn2nc3c(Oc4cc(C)cc(C)c4)nccn3c2=O)c1` here?
**A.** Its RP-LC retention time is 934 s.

**Q.** For `Cn1cc(S(=O)(=O)N2CCCCC2)cc1C(=O)Nc1ccccc1`, which RP-LC retention time is on record?
**A.** Its RP-LC retention time is 960 s.

**Q.** Which RP-LC retention time does the source give for `COc1ccc(NC(=O)C2CC(=O)N(CCc3c[nH]c4ccc(Cl)cc34)C2)cc1` (stereo unspecified) here?
**A.** The RP-LC retention time was 818 s.

**Q.** With `COc1ccc(NC(=O)C(=O)c2cccn2C)c(OC)c1` as the compound, how does the RP-LC retention time read?
**A.** The RP-LC retention time was 976 s.

**Q.** Which RP-LC retention time does the source give for `CCN1c2cc(C(=O)Nc3ccc4c(c3)OCCO4)ccc2C(=O)N2CCCCC21` (stereo unspecified) here?
**A.** Its RP-LC retention time is 821 s.

**Q.** With `CCOc1ccccc1NC(=O)CNC(=O)c1c[nH]c2ccccc12` as the compound, how does the RP-LC retention time read?
**A.** Its RP-LC retention time is 729 s.

**Q.** With `CCOC(=O)N1CCN(c2cc(C(=O)O)c3cc(NC(=O)CC)ccc3n2)CC1` as the compound, how does the RP-LC retention time read?
**A.** Its RP-LC retention time is 553 s.

**Q.** Which RP-LC retention time does the source give for `CC1CCC(NC(=O)C2CCCN(S(=O)(=O)c3c[nH]c(C(=O)N4CCCCCC4)c3)C2)CC1` (stereo unspecified) here?
**A.** The RP-LC retention time was 938 s.

**Q.** For `Cc1ccn2cc(-c3ccc(NC(=O)C(C)Oc4ccccc4)cc3)nc2n1` (stereo unspecified), which RP-LC retention time is on record?
**A.** Its RP-LC retention time is 672 s.

**Q.** With `N#Cc1cc(NC(=O)c2ccc3c(c2)OCO3)ccc1N1CC2CC(C1)c1cccc(=O)n1C2` (stereo unspecified) as the compound, how does the RP-LC retention time read?
**A.** Its RP-LC retention time is 749 s.

**Q.** For `Cc1ccc(NC(=O)c2cccc([N+](=O)[O-])c2O)c(C)c1`, which RP-LC retention time is on record?
**A.** The RP-LC retention time was 951 s.

**Q.** For `CC(=O)Nc1ccc(SCCCC(=O)Nc2nc3ccccc3s2)nn1`, which RP-LC retention time is on record?
**A.** Its RP-LC retention time is 691 s.

**Q.** With `O=S(=O)(c1ccccc1Br)N1CCC(c2noc(-c3ccccc3)n2)CC1` as the compound, how does the RP-LC retention time read?
**A.** The RP-LC retention time was 1160 s.

**Q.** For `CCCC(=O)NC1(c2nc(C(C)C)no2)CCCCC1`, which RP-LC retention time is on record?
**A.** Its RP-LC retention time is 850 s.

**Q.** For `COc1ccccc1NC(=O)N1CCC(n2cnc3ccccc3c2=O)CC1`, which RP-LC retention time is on record?
**A.** Its RP-LC retention time is 736 s.

**Q.** With `Cc1ccccc1CCNC(=O)c1cc2n(n1)CC(C)(C(=O)NCc1ccccc1)N(C)C2=O` (stereo unspecified) as the compound, how does the RP-LC retention time read?
**A.** The RP-LC retention time was 764 s.

**Q.** Which RP-LC retention time does the source give for `COc1ccc(Br)cc1S(=O)(=O)NC(=O)/C=C/c1ccccc1Cc1ccc2ccccc2c1` here?
**A.** The RP-LC retention time was 1280 s.

**Q.** With `COc1ccc(-c2ccnc3nc(-c4cccs4)nn23)cc1` as the compound, how does the RP-LC retention time read?
**A.** Its RP-LC retention time is 892 s.

**Q.** For `Cn1c(=O)n(C)c2cc(S(=O)(=O)c3ccc(F)cc3)c(NC(=O)Cc3ccc(F)cc3)cc21`, which RP-LC retention time is on record?
**A.** Its RP-LC retention time is 874 s.

**Q.** With `CSc1ccc(NC(=O)C2CCCN(c3cnc4nc(C)c(C)nc4c3)C2)cc1` (stereo unspecified) as the compound, how does the RP-LC retention time read?
**A.** The RP-LC retention time was 819 s.

**Q.** For `COC(=O)c1scc(-c2ccccc2)c1S(=O)(=O)N1CCC(C(N)=O)(N2CCCCC2)CC1`, which RP-LC retention time is on record?
**A.** The RP-LC retention time was 662 s.

**Q.** With `COc1cccc(CNS(=O)(=O)c2ccc(-c3c(C)noc3C)cc2)c1` as the compound, how does the RP-LC retention time read?
**A.** Its RP-LC retention time is 904 s.

**Q.** Which RP-LC retention time does the source give for `CN1C(=O)[C@H]2CN(Cc3ccc(F)c(Cl)c3)C[C@H]2C1=O` here?
**A.** Its RP-LC retention time is 623 s.

**Q.** For `CCc1nc2cccnc2n1C1CCN(C(=O)CCCc2ccccc2)C1` (stereo unspecified), which RP-LC retention time is on record?
**A.** The RP-LC retention time was 647 s.

**Q.** With `COc1cccc(CNC(=O)Cn2ccnc2-c2ccnc(N3CCCC3)c2)c1` as the compound, how does the RP-LC retention time read?
**A.** Its RP-LC retention time is 577 s.

**Q.** With `COCCCNC(=O)Cn1nc(C)c2sc(-c3ccccc3)nc2c1=O` as the compound, how does the RP-LC retention time read?
**A.** Its RP-LC retention time is 706 s.

**Q.** For `O=C1NC2(CCN(C(=O)Nc3ccccc3Cl)CC2)N=C1c1ccccc1`, which RP-LC retention time is on record?
**A.** The RP-LC retention time was 800 s.

**Q.** Which RP-LC retention time does the source give for `Cc1ccc(-c2nc3cnccn3c2Nc2ccc(C(=O)NCc3ccco3)cc2)cc1` here?
**A.** The RP-LC retention time was 753 s.

**Q.** With `O=C(c1cccc2[nH]ccc12)N1CC(Oc2cccc(-c3nc(-c4ccccc4)no3)c2)C1` as the compound, how does the RP-LC retention time read?
**A.** Its RP-LC retention time is 1090 s.

**Q.** With `CCOC(=O)C1=C(CN2CC(C)CC(C)C2)NC(=O)NC1c1ccc(Cl)cc1` (stereo unspecified) as the compound, how does the RP-LC retention time read?
**A.** The RP-LC retention time was 688 s.

**Q.** With `O=C(CN1CCN(C(=O)Cc2cccs2)CC1)c1ccco1` as the compound, how does the RP-LC retention time read?
**A.** The RP-LC retention time was 538 s.

**Q.** With `C=CCN1C(=O)COc2ccc(-c3nc(NC(=O)c4ccc(OC)c(OC)c4)sc3C)cc21` as the compound, how does the RP-LC retention time read?
**A.** Its RP-LC retention time is 985 s.

**Q.** For `COc1ccccc1N1CCN(c2ncc(S(=O)(=O)c3ccc(C)cc3)c(N)n2)CC1`, which RP-LC retention time is on record?
**A.** The RP-LC retention time was 955 s.

**Q.** Which RP-LC retention time does the source give for `O=C(NCc1ccc(F)cc1Cl)C1CCCN(c2ncnc3nn(-c4ccc(F)cc4)cc23)C1` (stereo unspecified) here?
**A.** The RP-LC retention time was 723 s.

**Q.** For `O=C(NCCn1nc(-c2ccco2)ccc1=O)C1CN(c2nc3c(F)cccc3s2)C1`, which RP-LC retention time is on record?
**A.** The RP-LC retention time was 680 s.

**Q.** With `COc1cc(-c2oc3cc(O)ccc3c(=O)c2O)ccc1O` as the compound, how does the RP-LC retention time read?
**A.** The RP-LC retention time was 687 s.

**Q.** With `COc1ccc(NC(=O)N2CCC(n3cnc4cccnc43)CC2)c(OC)c1` as the compound, how does the RP-LC retention time read?
**A.** Its RP-LC retention time is 633 s.

**Q.** Which RP-LC retention time does the source give for `CN(C(=O)CCCOc1ccc2[nH]c(=O)ccc2c1)C1CCCCC1` here?
**A.** Its RP-LC retention time is 840 s.

**Q.** For `Cc1ccccc1CNC(=O)Cn1c(C)nc2onc(C)c2c1=O`, which RP-LC retention time is on record?
**A.** The RP-LC retention time was 752 s.

**Q.** Which RP-LC retention time does the source give for `COc1cccc(C(=O)NCCCS(=O)(=O)N2CCN(c3ccccc3)CC2)c1OC` here?
**A.** The RP-LC retention time was 810 s.

**Q.** Which RP-LC retention time does the source give for `Cc1ccc2c(c1)N(C(=O)Cn1c(=O)cc(C(=O)N3CCCCC3)c3ccccc31)CCO2` here?
**A.** Its RP-LC retention time is 1010 s.

**Q.** With `Cc1cccc(CNC2=NCCNC23CCN(S(=O)(=O)c2ccc4c(c2)CCCC4)CC3)c1` as the compound, how does the RP-LC retention time read?
**A.** Its RP-LC retention time is 854 s.

**Q.** Which RP-LC retention time does the source give for `COc1cc(OC)c(NC(=O)COc2nc(C)nc3ccccc23)cc1Cl` here?
**A.** The RP-LC retention time was 771 s.

**Q.** For `COc1ccc(-c2nc(CCNS(=O)(=O)c3ccc(Cl)s3)cs2)cc1OC`, which RP-LC retention time is on record?
**A.** The RP-LC retention time was 918 s.

**Q.** For `CCC(C(=O)NCCOC)n1nc(C)c2nn(-c3ccccc3)c(C)c2c1=O` (stereo unspecified), which RP-LC retention time is on record?
**A.** The RP-LC retention time was 763 s.

**Q.** Which RP-LC retention time does the source give for `O=C(COc1ccc(F)cc1)Nc1nc(CN2CCc3ccccc3C2)cs1` here?
**A.** Its RP-LC retention time is 608 s.
